{"source": "patent US12186293B2", "about": "“Therapeutic methods using decanoic acid and amino acids” (Wintermute Biomedical, Inc., priority 2018, dated 2025)", "test_system": "methicillin-resistant Staphylococcus aureus (MRSA)", "assay": "In vitro bactericidal test on MRSA isolates (viable CFU/mL after 24 hours of treatment)", "details": "average across three MRSA isolates", "procedure": "Note that efficacy is reported in terms of the viable bacterial concentration (in CFU/mL) remaining after 24 hours of treatment with the drug product (in compliance with CLSI guidelines).\nIn this example, bacteria (MRSA isolates) are put onto fresh plates and allowed to grow for 30 hours. A suspension inoculum is made from the plates (e.g., a 1 McFarland solution in sterile water), from which the turbidity may be optically read. A standard inoculum may then be cultured in media and 100 μL of that solution combined with 100 μL of drug product and grown at various dilutions for 16-20 hrs. Duplicates may then be examined (e.g., following pelleting at 7,000 RPM for 15 min, resuspended in PBS and serial dilutions plated and grown for 24 hrs.). Duplicate plates at multiple dilutions may then be imaged and colonies counted."}
{"molecule": "CCCCCCCCCCCCCCCCO", "note": "[CA, cetyl alcohol]", "values": [{"measurement": "effect of increasing amounts of CA in the UCA and LARG composition", "value": "decrease in efficacy"}]}
